The values that follow come from patent publication US12241112B2, “D-glucaric acid producing bacterium, and method for manufacturing D-glucaric acid” (Ensuiko Sugar Refining Co., Ltd., priority 2012, dated 2025).

One data set has as its system PQQ-ALDH (2). The data set can be described thus: Substrate specificity of PQQ-ALDH (2). Type of data set: biochemical, Pseudogluconobacter saccharoketogenes. Particulars: McIlvaine buffer pH 8.0, relative to sodium salt of intermediate B set to be 100. As to the method:
(§1) • Substrate solution: 0.2 M sodium glyoxylate solution (adjusted to pH 8.0 with sodium hydroxide) • Buffer: McIlvaine buffer (pH 8.0)
(§2) Other reagents and preparation methods thereof and measurement procedures are in accordance with the measurement of ADH (1) activity.
Each substrate (D-glucose, sodium D-gluconate, sodium D-glucuronate, intermediate A, sodium salt of intermediate B, sodium glyoxylate) was dissolved in McIlvaine buffer (pH 8.0) and the activity of ALDH was measured as described in Example 1 to study the substrate specificity of PQQ-ALDH (2). The enzyme activity for each substrate is expressed as a relative activity to the activity measured with the sodium salt of intermediate B as a substrate that was set to be 100.

Another data set relates to PQQ/Heme-ALDH (4). The data set can be described thus: Substrate specificity of PQQ/Heme-ALDH (4). It is filed as biochemical, Pseudogluconobacter saccharoketogenes. Conditions: McIlvaine buffer pH 8.0, relative to sodium D-gluconate set to be 100. As to the method:
as §1, §2
Each substrate (D-glucose, sodium D-gluconate, sodium D-glucuronate, intermediate A, sodium salt of intermediate B, sodium glyoxylate) was dissolved in McIlvaine buffer (pH 8.0) and the activity of ALDH was measured as described in Example 1 to study the substrate specificity of PQQ/Heme-ALDH (4). The enzyme activity for each substrate is expressed as a relative activity to the activity measured with sodium D-gluconate as a substrate that was set to be 100.

In the next data set the test system is PQQ-ADH (1). The data set can be described thus: Substrate specificity of PQQ-ADH (1). Type of data set: biochemical, Pseudogluconobacter saccharoketogenes. Conditions: McIlvaine buffer pH 5.0, relative to D-glucose set to be 100. On the procedure: (§3) The culture solution (1 mL) was centrifuged at 10,000 rpm for 5 minutes to recover the cells. The cells were resuspended in 1 mL of 0.9% saline. The cell suspension was appropriately diluted in 0.9% saline to obtain a crude enzyme solution. In a test tube 250 μL of the buffer, 500 μL of the substrate solution and 50 μL of the crude enzyme solution were placed and preliminarily heated to 30° C. for 5 minutes.
(§4) To the mixture 200 μL of the potassium ferricyanide solution was added to initiate oxidation reaction. After 10 minutes, 500 μL of the reaction termination solution was added to terminate the reaction. The reaction solution was added with 3.5 mL of pure water, left to stand in the dark at room temperature for 20 minutes and measured for the absorbance at 660 nm. For the control, pure water was used instead of the substrate solution. In this measurement, 1 U is defined as the amount of enzyme required to oxidize 1 μM of the substrate per minute.
Each substrate (D-glucose, sodium D-gluconate, sodium D-glucuronate, intermediate A, sodium salt of intermediate B) was dissolved in McIlvaine buffer (pH 5.0) and the activity of ADH was measured as described in Example 1 to study the substrate specificity of PQQ-ADH (1). The enzyme activity for each substrate is expressed as a relative activity to the activity measured with D-glucose as a substrate that was set to be 100.

Another data set concerns the target T1, β-glucuronidase (Homo sapiens, UniProt P08236).
T1 sequence (P08236 23-651): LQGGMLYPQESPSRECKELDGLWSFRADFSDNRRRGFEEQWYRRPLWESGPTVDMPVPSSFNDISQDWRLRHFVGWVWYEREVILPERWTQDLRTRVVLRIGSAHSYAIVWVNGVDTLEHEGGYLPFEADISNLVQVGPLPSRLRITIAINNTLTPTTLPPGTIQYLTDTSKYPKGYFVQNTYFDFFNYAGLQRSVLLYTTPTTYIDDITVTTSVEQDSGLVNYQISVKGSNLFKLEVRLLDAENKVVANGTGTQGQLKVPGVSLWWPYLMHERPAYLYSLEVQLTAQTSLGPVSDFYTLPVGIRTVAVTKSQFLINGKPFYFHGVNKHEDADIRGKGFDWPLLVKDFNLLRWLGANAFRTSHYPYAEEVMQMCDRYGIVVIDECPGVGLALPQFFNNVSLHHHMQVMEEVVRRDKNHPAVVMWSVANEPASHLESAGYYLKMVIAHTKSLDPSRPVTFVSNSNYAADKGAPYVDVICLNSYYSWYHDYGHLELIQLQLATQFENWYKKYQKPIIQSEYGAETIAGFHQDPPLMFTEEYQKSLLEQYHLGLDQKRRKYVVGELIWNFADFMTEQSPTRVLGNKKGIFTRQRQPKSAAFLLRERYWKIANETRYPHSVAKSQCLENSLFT
Conditions: background statement; cited from earlier work.

The next data set relates to ALDH (2 and 3). The data set can be described thus: Measurement of activity of ALDH (2 and 3) (potassium ferricyanide method, sodium glyoxylate substrate, pH 8.0). It is filed as biochemical, Pseudogluconobacter saccharoketogenes. As to the method: as §3, §4
2) Measurement of Activity of ALDH (2 and 3)
as §1, §2

The subject of another data set is ADH (1). The data set can be described thus: Measurement of activity of ADH (1) (potassium ferricyanide method, glucose substrate, pH 5.0). It is filed as biochemical, Pseudogluconobacter saccharoketogenes. Conditions: ADH (1) activity. On the procedure: 1) Measurement of Activity of ADH (1)
• Substrate solution: 0.2 M glucose solution • Buffer: McIlvaine buffer (pH 5.0) • Potassium ferricyanide solution: 0.1 M potassium ferricyanide solution • Reaction termination solution: 5 g of ferric sulphate and 95 mL of phosphoric acid were dissolved in pure water and adjusted to 1 L. <Measurement Procedures>
as §3, §4

Structures can show the parent of a compound that is named as a salt. Where only a bound is given, the exact number is not on record here.

With `O=CC(=O)[O-].[Na+]` [sodium glyoxylate, reference compound], the Relative activity is listed as 3,050% in the data set on PQQ-ALDH (2) (0.2M substrate) and 20,260% in the data set on PQQ/Heme-ALDH (4) (0.2M substrate).

Turning to `O=C[C@@H](O)[C@@H](O)[C@H](O)[C@@H](O)C=O` [intermediate A, D-glucaraldehyde], the Relative activity with PQQ-ALDH (2) (0.02M substrate) was 476%; in the data set with PQQ-ADH (1) (0.02M substrate) it was 59.1%; with PQQ/Heme-ALDH (4) (0.02M substrate), 11.6%.

On to `O=C([O-])[C@H](O)[C@@H](O)[C@H](O)[C@H](O)CO.[Na+]` [sodium D-gluconate], for which the Relative activity is given as less than 1% with PQQ-ALDH (2) (0.2M substrate), 88.6% with PQQ-ADH (1) (0.2M substrate) and 100% with PQQ/Heme-ALDH (4) (0.2M substrate).

In the case of `O=C(O)[C@@H](O)[C@@H](O)[C@H](O)[C@@H](O)C(=O)O` [D-glucaric acid], the “inhibition of β-glucuronidase” value at β-glucuronidase is “strongly inhibit”.

For `O=C[C@@H](O)[C@@H](O)[C@H](O)[C@@H](O)C(=O)O` [sodium salt of intermediate B, L-guluronic acid], the Relative activity in the data set with PQQ-ALDH (2) (0.2M substrate) was 100%; in the data set on PQQ-ADH (1) (0.2M substrate), 2.7%; in the data set with PQQ/Heme-ALDH (4) (0.2M substrate), 21.1%.

As to `O=C[C@H](O)[C@@H](O)[C@H](O)[C@H](O)CO` [D-glucose], the Relative activity in the data set with PQQ-ALDH (2) (0.2M substrate) is 11.8%; with PQQ-ADH (1) (0.2M substrate), 100%; with PQQ/Heme-ALDH (4) (0.2M substrate) it was 35.1%.

On to `O=C[C@H](O)[C@@H](O)[C@H](O)[C@H](O)C(=O)[O-].[Na+]` [sodium D-glucuronate], for which the Relative activity with PQQ-ALDH (2) (0.2M substrate) is reported as 18.6%; in the data set with PQQ-ADH (1) (0.2M substrate) it was less than 1%; with PQQ/Heme-ALDH (4) (0.2M substrate), 2.9%.

B1: PQQ/Heme-ALDH (4): ALDH (3) enzyme with the highest activity, contains PQQ and Heme c, SEQ ID NO: 3 (protein)
chain: MTIRLKTLLAFTAITTLALPAFAQDAAAPAAPAARTYKPVTNDMILNPPAEEWISWRRTVDNQGYSPLDLINKDIVKNLELAWAWPMAADGQQEAAPLVHDGIMFLSTNQNIIQALDAKTGDLIWEYRHVLPELPTSWGYQLNQARRQKNSIALYDDKVIVATADAKLVALDAATGKVAWETQVYDTQKGYSYTVGPLIVGDTAVYGPAGGEYGIRGWLEFIAAHDAKTGKEIWRFNTIDDPKNPEQEASWNGVPPENRWGGTPWTTGSYDPRTNTTFWGVGMPGPYSQLIRGSGEGPVLYTNNTLALDADTGERKWNFSHLPADNWDLDSPFERILVDEGQGDAAKHLLVTVPGKDGIAFGLDRDTGKYLWSRDTVYQNVVKNIDAEGKVTLNSDLVPTAVNQEVFVCTSVSGGKLWMTGAYSPKTQTYYVPLAEACNTVTPTVTEFTAGNAVGATKFGPRVLPPNITNGGVVEAINVADGARKWRLEQRPTFSSSLLAKAKVLVPRRLNGMLATGGDLETGQVVWKTRLNAPIGGYPMTYEIDGEQYLAVPTGFSAQASSSASMFPEIPVPSGSGNSLFVFKLRNDTQTASK
modifications: PQQ and heme c cofactors; Pseudogluconobacter
Consider B1, for which the Specific activity with ALDH (2 and 3) (enzyme purified from K591s strain, ALDH (3) activity) is 27,661 U/mg.

B2: PQQ-ADH (1): specific pyrroloquinoline quinone-dependent alcohol dehydrogenase, amino acid sequence of SEQ ID NO: 1 (protein)
chain: MLKQSLLASGLAALCVAAMGSLSLAAETTSERLLNAGSEAENGNWLMVHRTYDSHRFSPLSEINKDTIKDLGLASVTILDNASRGGRYASARNEGTPLVEDGFMYLQSGWSVVYKLDVRDGKTAKVVWKYDPEVDRQWVSDATCCGAENRGIGLWNDDVVALTMDGRVMSINKDTGELNWEKQRADKARAESFTGAPLIIGDTAVYGPAGGEYGIRGWLEAIDLKTGDVAWRTYTVPGPGEPGNDTWQGNAWETGGASIWQTGSYDPDTGMTYWGTGNPAPQIDAEYRPGDNLYASSLLALDAKDGALKWHFQFTPNDPYDYDEIGDNQLLDVSVDGKPSKMVVRAARNGFMYGFNRLDGAMTYAKQYVEDLTWTTGIDPKTGKPLEYDPKAQLQKYVAGTVGSREGNPGIYCPTLGGGKNWQPAAYSPNTKLLYVTSAEGCSAYVPEAAPNPTTTGGEYDVVKAQREWNGRLPAPEGTKLPDVFNGGSVKAIDPLTGETKAKVLVPRRLNGMLATGGDLVWSSGTDGNLYAYDANTLETVWTFNVGTALGGPPMSYSVDGKQYVAVLAGAAASAADKKVAPQSEFFVPADALYIFALK
modifications: Pseudogluconobacter
Regarding B2, the Specific activity is 36.0 U/mg in the data set on ADH (1) (enzyme purified from K591s strain) and 38.6 U/mg in the data set with ADH (1) (enzyme purified from Rh47-3 strain).

B3: PQQ-ALDH (2): specific pyrroloquinoline quinone-dependent aldehyde dehydrogenase, amino acid sequence of SEQ ID NO: 2 (protein)
chain: MYRKGSVLTVSALVLGLCTSSVWAQQAPTTNALDNLTPVTSVWAQQAPTTNALDNLTPVTGWGYSPLDQINKDNVDKLQLVWSWGLSPGGTTQETPLVHDGVMFVQNSSHLIQALDAGTGELLWQYQYSLPTGVNPAGQRSKALYGDNLIFATRDAHIVAVNAKTGKLAWDQQVADYKKGWGYSSGPLVADGTIIQGMTNCGNGEPGGCFITGHDPATGKELWRLNTIASGDTPEGNSWNGLPQMSRYGASAWITGSYDPDQNIVFAGVGQPYPWPAVLNGLLPKSTDSKYTNNAAYTDSTLAIEPKTGALKWYHQYLATDTLDLDYVYERLLVDLPVKGEATKQVITAGKLAIIESLDRTSGKWLWAHETVPQNVVSAIDPVTGEKTINPDVIPQVGKTTVNCPADPGGRAWQATSFSPKTQMMYMPTVEFCSNTDVNPLDPGQVYTGGGLATFNRVPRPDSDGNIGQVRAINLADQTDAWMYRQHAPVTTSTLPTGGGLVFVGTLDRKLIAFDDTTGKILWTSPKLDNAIESFPVTFTAGDKQYVAVVTNWSSGLGRLKSITPDVQLPQDNPHTVYVFALPDTK
modifications: Pseudogluconobacter
With B3, the Specific activity in the data set with ALDH (2 and 3) (enzyme purified from Rh47-3 strain, ALDH (2) activity) was 8,928 U/mg.
